Test results published in US10562842B2, “Use of polyaminoisoprenyl derivatives in antibiotic or antiseptic treatment” (UNIVERSITE D'AIX-MARSEILLE, priority 2011, dated 2020).

What was measured:
[1] = tested on: strain IV2571418 - Escherichia coli pig (resistant); experiment: MIC of antibiotics in the presence and absence of test compound, veterinary strains; assay type: cell-based; set-up: MIC for strain IV2571418, Doxycycline in the presence of test compound: unit not given beside the values; settings: compound at the Concentration (μM) (4-50)
Method: (§1) For each strain and each antibiotic, the MICs were determined in the presence and in the absence of one test compound.

[2] = tested on: Enterobacter aerogenes MDR Ea289; experiment: MIC of antibiotics ± test compound (MIC ratio), micro-broth dilution; assay type: cell-based; settings: compound at MIC/4, Set 2; for MIC ratio (*) on Ea289 Dox: doxycycline; for MIC ratio (*) on Ea289 Nal: nalidixic acid
CHO cells = experiment: Toxicity on CHO cultured cells; assay type: cell-based; settings: for IC50: Cricetulus griseus, killing of 50% of the CHO cells after 24 hours of incubation
Method: The toxicity of each compound was determined on CHO cultured cells. Incubation of CHO cells was performed with serial dilution of compounds. The compounds are either solubilized in DMSO or in PBS. The IC50 corresponds to the concentration of compounds leading to a killing of 50% of the CHO cells after 24 hours of incubation.

[3] = tested on: Enterobacter aerogenes MDR Ea289; experiment: MIC of antibiotics ± test compound (MIC ratio), micro-broth dilution; assay type: cell-based; settings: for efficient concentration, times lower than the control PAβN: chloramphenicol MIC ratio of 8 on Ea289; for activity, effective concentration compared with PAβN to reach a MIC ratio of 8: chloramphenicol on Ea289; for Effective concentration (mM) for a MIC ratio of chloramphenicol ≥ 8 on Ea289 / MIC ratio (*) on Ea289 Chl: chloramphenicol; for MIC ratio (*) on Ea289 Chl / MIC ratio(*) on Ea289 Ery / MIC ratio (*) on Ea289 Nal: compound at MIC/4; for MIC ratio(*) on Ea289 Ery: erythromycin; for MIC ratio (*) on Ea289 Nal: nalidixic acid
Method: The process consists of treating the MDR bacteria with the compounds of the invention in the presence of antibiotics.
(§2) Susceptibilities to antibiotics and compounds were determined in microplates by broth dilution method, as previously described. Minimal Inhibitory Concentrations (MICs) were determined with an inoculum of 10^6 CFU in 200 μL of MH broth containing two-fold serial dilutions of each drug. […] All MIC determinations were repeated at least three times in independent experiments.
The MICs of chloramphenicol±test compounds (MIC/4) were determined by the micro-broth dilution method (9). All MIC determinations were repeated at least three times in independent experiments. The MIC ratio corresponds to the ratio of the MIC of an antibiotic alone to the MIC of the same antibiotic in the presence of the tested compound (at MIC/4).
The compounds listed in Table 2 were tested for their ability to decrease the chloramphenicol MIC of Ea289, an Enterobacter aerogenes MDR strain (1). Each compound was first tested at MIC/4. […] All MIC determinations were repeated at least three times in independent experiments.
(§3) For reminder, the MIC ratio corresponds to the ratio of the MIC of the assessed antibiotic alone to the MIC of the same antibiotic in the presence of the tested compound (at MIC/4).

BN10055ΔacrB = experiment: as above; assay type: cell-based, Salmonella enterica serovar Typhimurium; settings: compound at MIC/4, Set 1; for MIC ratio(*) on BN10055ΔacrB Chl: chloramphenicol; for MIC ratio(*) on BN10055ΔacrB Ery: erythromycin; for MIC ratio(*) on BN10055ΔacrB Nal: nalidixic acid
Method: (§4) The Enterobacter aerogenes Ea289 strain is a Kans derivative of the MDR clinical isolate Ea27, the acrB mutant, EaEP294, was constructed from Ea289. Multidrug-resistant Salmonella enterica serovar Typhimurium DT104 strains (BN10055) was isolated from cattle in France, the isogenic acrB derivative mutant, BN10055ΔacrB, was constructed from BN10055. Strains were maintained at −80° C. in 25% (v/v) glycerol for cryoprotection. Bacteria were routinely grown in Mueller-Hinton (MH) broth at 37° C.
as §2
(§5) […] All MIC determinations were repeated at least three times in independent experiments. The MIC ratio corresponds to the ratio of the MIC of an antibiotic alone to the MIC of the same antibiotic in the presence of the tested compound (at MIC/4).
as §3

[4] = tested on: Salmonella Thyphimurium MDR BN10055; experiment: as above; assay type: cell-based, Salmonella enterica serovar Typhimurium; settings: compound at MIC/4; for MIC ratio (*) on BN10055 Chl: chloramphenicol; for MIC ratio (*) on BN10055 Dox: doxycycline; for MIC ratio(*) on BN10055 Ery: erythromycin; for MIC ratio (*) on BN10055 Nal: nalidixic acid
Method: as §4, §2, §5, §3

[5] = tested on: strain IV2571223 - Escherichia coli pig (sensible); experiment: MIC of antibiotics in the presence and absence of test compound, veterinary strains; assay type: cell-based; set-up: MIC for strain IV2571223, Doxycycline in the presence of test compound: unit not given beside the values; settings: compound at the Concentration (μM) (2-50)
Method: as §1

Ea289ΔacrB (Ea294) = experiment: MIC of antibiotics ± test compound (MIC ratio), micro-broth dilution; assay type: cell-based, Enterobacter aerogenes; settings: compound at MIC/4, Set 1; for MIC ratio(*) on Ea289ΔacrB Chl: chloramphenicol; for MIC ratio(*) on Ea289ΔacrB Ery: erythromycin; for MIC ratio(*) on Ea289ΔacrB Nal: nalidixic acid
Method: as §4, §2, §5, §3

[6] = tested on: strain IV2570060 - Escherichia coli cattle (sensible); experiment: MIC of antibiotics in the presence and absence of test compound, veterinary strains; assay type: cell-based; settings: compound at the Concentration (μM) (4-50)
Method: as §1

[7] = tested on: strain IV2570533 - Escherichia coli cattle (resistant); experiment: as above; assay type: cell-based; settings: compound at the Concentration (μM) (0.896-12.6)
Method: as §1

CC(C)=CCCC(C)=CCNCCCNCCCCNCCCN (racemic) [Compound 10, {3-[4-(3-Amino-propylamino)-butylamino]-propyl}-(3,7-dimethyl-octa-2,6-dienyl)-amine]
MIC for strain IV2571418, Doxycycline in the presence of test compound [1]: 2
MIC for strain IV2571418, Tylosine in the presence of test compound [1]: 16
MIC ratio (*) on Ea289 Dox [2]: 16
MIC ratio (*) on Ea289 Nal [2]: 16
IC50 (CHO cells): 2.33 mM
IC50 on CHO cells, times higher than effective concentration (CHO cells; IC50 on CHO cells versus effective concentration on Ea289): about 300 times
Effective concentration (mM) for a MIC ratio of chloramphenicol ≥ 8 on Ea289 [3]: 0.0078 mM
efficient concentration, times lower than the control PAβN [3]: about 4.9 times
activity, effective concentration compared with PAβN to reach a MIC ratio of 8 [3]: strong activity
MIC ratio (*) on Ea289 Chl ([3]; Set 1): 16
MIC ratio (*) on Ea289 Chl ([3]; Set 2): 8
MIC ratio(*) on Ea289 Ery ([3]; Set 1): 4
MIC ratio (*) on Ea289 Nal ([3]; Set 1): 16
MIC ratio(*) on BN10055ΔacrB Chl (BN10055ΔacrB): 2
MIC ratio(*) on BN10055ΔacrB Ery (BN10055ΔacrB): 8
MIC ratio(*) on BN10055ΔacrB Nal (BN10055ΔacrB): 2
MIC ratio (*) on BN10055 Chl ([4]; Set 1): 16
MIC ratio (*) on BN10055 Chl ([4]; Set 2): 16
MIC ratio (*) on BN10055 Dox ([4]; Set 2): 16
MIC ratio(*) on BN10055 Ery ([4]; Set 1): 4
MIC ratio (*) on BN10055 Nal ([4]; Set 1): 64
MIC ratio (*) on BN10055 Nal ([4]; Set 2): 64
MIC for strain IV2571223, Doxycycline in the presence of test compound [5]: 0.0625
MIC for strain IV2571223, Tylosine in the presence of test compound [5]: 4
MIC ratio(*) on Ea289ΔacrB Chl (Ea289ΔacrB (Ea294)): 16
MIC ratio(*) on Ea289ΔacrB Ery (Ea289ΔacrB (Ea294)): 8
MIC ratio(*) on Ea289ΔacrB Nal (Ea289ΔacrB (Ea294)): 8
MIC for strain IV2570060, Doxycycline in the presence of test compound [6]: 0.125
MIC for strain IV2570060, Tylosine in the presence of test compound [6]: 16
MIC for strain IV2570533, Doxycycline in the presence of test compound [7]: 2
MIC for strain IV2570533, Tylosine in the presence of test compound [7]: 8

CC(C)=CCC/C(C)=C/CC/C(C)=C/CNCCCN(CCCN)CCCN [Compound 9, {3-[Bis-(3-amino-propyl)-amino]-propyl}-(3,7,11-trimethyl-dodeca-2,6,10-trienyl)-amine]
MIC ratio (*) on Ea289 Dox [2]: 16
MIC ratio (*) on Ea289 Nal [2]: 16
IC50 (CHO cells): 0.132 mM
Effective concentration (mM) for a MIC ratio of chloramphenicol ≥ 8 on Ea289 [3]: 0.0078 mM
efficient concentration, times lower than the control PAβN [3]: about 4.9 times
activity, effective concentration compared with PAβN to reach a MIC ratio of 8 [3]: strong activity
MIC ratio (*) on Ea289 Chl ([3]; Set 1): 32
MIC ratio (*) on Ea289 Chl ([3]; Set 2): 32
MIC ratio(*) on Ea289 Ery ([3]; Set 1): 16-32
MIC ratio (*) on Ea289 Nal ([3]; Set 1): 16
MIC ratio(*) on BN10055ΔacrB Chl (BN10055ΔacrB): 2
MIC ratio(*) on BN10055ΔacrB Ery (BN10055ΔacrB): 8
MIC ratio(*) on BN10055ΔacrB Nal (BN10055ΔacrB): 8
MIC ratio (*) on BN10055 Chl ([4]; Set 1): 16
MIC ratio (*) on BN10055 Chl ([4]; Set 2): 16
MIC ratio (*) on BN10055 Dox ([4]; Set 2): 8
MIC ratio(*) on BN10055 Ery ([4]; Set 1): 32
MIC ratio (*) on BN10055 Nal ([4]; Set 1): 128
MIC ratio (*) on BN10055 Nal ([4]; Set 2): 128
MIC ratio(*) on Ea289ΔacrB Chl (Ea289ΔacrB (Ea294)): 4
MIC ratio(*) on Ea289ΔacrB Ery (Ea289ΔacrB (Ea294)): 8
MIC ratio(*) on Ea289ΔacrB Nal (Ea289ΔacrB (Ea294)): 128

CC(C)=CCC/C(C)=C/CNCCCN(C)CCCN [Compound 13, {3-[(3-Amino-propyl)-methyl-amino]-propyl}-((E)-3,7-dimethyl-octa-2,6-dienyl)-amine]
MIC ratio (*) on Ea289 Dox [2]: 16
MIC ratio (*) on Ea289 Nal [2]: 8
MIC ratio (*) on Ea289 Chl ([3]; Set 2): 16
MIC ratio (*) on BN10055 Chl ([4]; Set 2): 8-16
MIC ratio (*) on BN10055 Dox ([4]; Set 2): 16
MIC ratio (*) on BN10055 Nal ([4]; Set 2): 32

CC(C)=CCC/C(C)=C/CC/C(C)=C/CNCCCN1CCN(CCCN)CC1 [Compound 15, {3-[4-(3-Amino-propyl)-piperazin-1-yl]-propyl}-((2E,6E)-3,7,11-trimethyl-dodeca-2,6,10-trienyl)-amine]
MIC for strain IV2571418, Doxycycline in the presence of test compound [1]: 4
MIC for strain IV2571418, Tylosine in the presence of test compound [1]: 32
MIC ratio (*) on Ea289 Dox [2]: 128
MIC ratio (*) on Ea289 Nal [2]: 32
MIC ratio (*) on Ea289 Chl ([3]; Set 2): 8
MIC ratio (*) on BN10055 Chl ([4]; Set 2): 8
MIC ratio (*) on BN10055 Dox ([4]; Set 2): 32
MIC ratio (*) on BN10055 Nal ([4]; Set 2): 64
MIC for strain IV2571223, Doxycycline in the presence of test compound [5]: 0.0625
MIC for strain IV2571223, Tylosine in the presence of test compound [5]: 32
MIC for strain IV2570060, Doxycycline in the presence of test compound [6]: 0.125
MIC for strain IV2570060, Tylosine in the presence of test compound [6]: 32
MIC for strain IV2570533, Doxycycline in the presence of test compound [7]: 2
MIC for strain IV2570533, Tylosine in the presence of test compound [7]: 32

CC(C)=CCC/C(C)=C/CC/C(C)=C/CNCCCN [Compound 16]
MIC ratio (*) on Ea289 Dox [2]: 64
MIC ratio (*) on Ea289 Nal [2]: 16
MIC ratio (*) on Ea289 Chl ([3]; Set 2): 8-16
MIC ratio (*) on BN10055 Chl ([4]; Set 2): 16-32
MIC ratio (*) on BN10055 Dox ([4]; Set 2): 32
MIC ratio (*) on BN10055 Nal ([4]; Set 2): 128

CC(C)=CCC/C(C)=C/CC/C(C)=C/CNCCCCN [Compound 17]
MIC ratio (*) on Ea289 Dox [2]: 64
MIC ratio (*) on Ea289 Nal [2]: 16
MIC ratio (*) on Ea289 Chl ([3]; Set 2): 8-16
MIC ratio (*) on BN10055 Chl ([4]; Set 2): 8
MIC ratio (*) on BN10055 Dox ([4]; Set 2): 16
MIC ratio (*) on BN10055 Nal ([4]; Set 2): 64
